Laboratory results taken from PubChem BioAssay (NCI).
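These data come from cells grown in 96-well plates and exposed to compound for 48 hours at five concentrations. Definition used: TGI = concentration required for complete inhibition of growth.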

Experiments:
Experiment in all cases: growth of human tumour cells (NCI), 48 h
SR leukemia = test system: SR leukemia
SK-MEL-2 melanoma = test system: SK-MEL-2 melanoma
HOP-18 NSCLC = test system: HOP-18 NSCLC
IGROV1 ovarian = test system: IGROV1 ovarian
TK-10 renal = test system: TK-10 renal
M19-MEL melanoma = test system: M19-MEL melanoma
RXF 393 renal = test system: RXF 393 renal
SF-268 CNS = test system: SF-268 CNS
HCT-15 colon = test system: HCT-15 colon
HCT-116 colon = test system: HCT-116 colon

SMILES	TGI (SR leukemia) [µM]	TGI (SK-MEL-2 melanoma) [µM]	TGI (HOP-18 NSCLC) [µM]	TGI (IGROV1 ovarian) [µM]	TGI (TK-10 renal) [µM]	TGI (M19-MEL melanoma) [µM]	TGI (RXF 393 renal) [µM]	TGI (SF-268 CNS) [µM]	TGI (HCT-15 colon) [µM]	TGI (HCT-116 colon) [µM]
CCNCC(=O)O[C@]1(CC)C(=O)OCc2c1cc1n(c2=O)Cc2cc3ccccc3nc2-1	0.0327	7.92	20.5	24.5	99	5.44	1.74	> 100	> 100	3.29
COC1=CC(O)(CC(N)=O)c2ccccc2C1=O (stereo not given)	> 100	> 100	> 100	> 100	> 100	> 100	> 100	> 100	> 100	> 100
CC(=O)C1CC=C(C)CC1 (stereo not given)	> 100	> 100	> 100	> 100	> 100	> 100	> 100	> 100	> 100	> 100
CC(C)c1ccccc1NC(=O)C(=O)Cc1nc2ccccc2s1	> 100	> 100	> 100	> 100	> 100	> 100	> 100	> 100	> 100	> 100
CCOC(=O)N1CCc2cc(OC)c(OC)c3c2C1CC3=O (stereo not given)	> 100	> 100	> 100	> 100	> 100	> 100	> 100	> 100	> 100	> 100
CCn1c2c(n(CC)c1=S)-c1c(n(CC)c(=S)n1CC)SSSS2	9.17	31.2	22	34.3	28.4	22.1	7.55	44.4	11.8	11
O=C(CO)CC(=O)C(=O)Nc1nc([N+](=O)[O-])cs1	> 100	> 100	> 100	> 100	> 100	> 100	> 100	> 100	> 100	> 100
CN(C)c1ccc(/C=C(/NC(=O)c2ccccc2)c2nc3ccc(Cl)cc3[nH]2)cc1	> 89.4	99.4	8.45	> 100	> 100	69.6	> 93.9	> 100	> 73.1	> 100
